Laboratory results published in ChEMBL document CHEMBL2073824, “Mechanism of the pharmacokinetic interaction between methotrexate and benzimidazoles: potential role for breast cancer resistance protein in clinical drug-drug interactions” (Cancer Res, 2004).
Values belong to the molecule of their own block, whether it stands above or below them.

Experiments:
[1] = target: T1, Broad substrate specificity ATP-binding cassette transporter ABCG2 (Homo sapiens, UniProt Q9UNQ0); experiment: TP_TRANSPORTER: inhibition of MTX uptake in membrane vesicle from BCRP-expressing Sf9 cell; type: functional, cell membranes
T1 sequence (Q9UNQ0 whole entry): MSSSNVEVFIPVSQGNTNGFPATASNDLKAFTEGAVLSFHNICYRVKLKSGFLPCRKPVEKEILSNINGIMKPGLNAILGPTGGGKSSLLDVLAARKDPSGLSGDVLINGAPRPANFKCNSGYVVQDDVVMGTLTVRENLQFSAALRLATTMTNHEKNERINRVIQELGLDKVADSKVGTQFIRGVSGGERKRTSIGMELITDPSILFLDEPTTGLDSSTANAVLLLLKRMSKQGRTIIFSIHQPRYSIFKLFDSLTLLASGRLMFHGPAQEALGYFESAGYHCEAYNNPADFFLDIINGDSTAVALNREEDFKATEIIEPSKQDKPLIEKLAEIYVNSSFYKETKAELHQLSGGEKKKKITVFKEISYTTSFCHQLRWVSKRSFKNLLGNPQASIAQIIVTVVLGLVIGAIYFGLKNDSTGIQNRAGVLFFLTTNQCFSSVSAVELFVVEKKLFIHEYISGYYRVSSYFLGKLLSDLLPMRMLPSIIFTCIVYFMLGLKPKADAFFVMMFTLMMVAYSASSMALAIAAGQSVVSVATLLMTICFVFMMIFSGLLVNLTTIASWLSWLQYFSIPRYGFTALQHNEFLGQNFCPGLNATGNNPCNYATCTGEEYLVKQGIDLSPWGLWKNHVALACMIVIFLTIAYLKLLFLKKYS

[2] = target: T1, Broad substrate specificity ATP-binding cassette transporter ABCG2; experiment: TP_TRANSPORTER: uptake in membrane vesicle from BCRP-expressing Sf9 cells; type: functional, cell membranes
[3] = target: T2, Broad substrate specificity ATP-binding cassette transporter ABCG2 (Mus musculus, UniProt Q7TMS5); experiment: TP_TRANSPORTER: transepithelial transport in Bcrp-expressing MDCKII cells; type: functional, cell-based; settings: dog, mdck-ii
T2 sequence (Q7TMS5 whole entry): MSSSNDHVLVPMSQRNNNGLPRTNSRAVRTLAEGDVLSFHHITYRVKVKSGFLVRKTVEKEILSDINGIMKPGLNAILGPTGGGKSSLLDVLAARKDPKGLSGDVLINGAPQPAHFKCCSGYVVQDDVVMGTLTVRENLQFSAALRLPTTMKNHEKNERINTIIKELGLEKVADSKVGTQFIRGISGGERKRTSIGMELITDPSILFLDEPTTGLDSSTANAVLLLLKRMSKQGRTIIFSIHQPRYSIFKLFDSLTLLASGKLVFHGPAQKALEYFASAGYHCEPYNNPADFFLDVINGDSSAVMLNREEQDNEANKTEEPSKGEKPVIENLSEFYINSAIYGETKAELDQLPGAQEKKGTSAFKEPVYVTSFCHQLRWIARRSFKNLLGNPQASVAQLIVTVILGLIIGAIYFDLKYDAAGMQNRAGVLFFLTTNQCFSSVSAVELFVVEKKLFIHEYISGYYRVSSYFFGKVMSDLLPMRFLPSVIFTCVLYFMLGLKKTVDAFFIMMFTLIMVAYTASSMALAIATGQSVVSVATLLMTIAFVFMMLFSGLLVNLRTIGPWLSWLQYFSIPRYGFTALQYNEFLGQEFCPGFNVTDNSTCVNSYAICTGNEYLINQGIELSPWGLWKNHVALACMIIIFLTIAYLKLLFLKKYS

IC50 ([1]; sf9): inhibitor [IC50=10-50uM]
Compound: COc1ccc2[nH]c([S+]([O-])Cc3ncc(C)c(OC)c3C)nc2c1 (stereo not given) [OMEPRAZOLE]

Activity [2]: substrate []
Compound: CN(Cc1cnc2nc(N)nc(N)c2n1)c1ccc(C(=O)N[C@@H](CCC(=O)O)C(=O)O)cc1 [METHOTREXATE]

IC50 ([1]; read-out: IC50): 10 µM
Km [3]: substrate [Km=0.1-0.2mM]
Compound: COc1ccnc(C[S+]([O-])c2nc3ccc(OC(F)F)cc3[nH]2)c1OC (stereo not given) [PANTOPRAZOLE]

Activity [3]: substrate []
Compound: CC[C@@]1(O)C(=O)OCc2c1cc1n(c2=O)Cc2cc3c(CN(C)C)c(O)ccc3nc2-1 [TOPOTECAN]
